≈ marks a conversion by molar mass, not a printed value.
Legend:
[1] = system: Staphylococcus aureus (Isolate ID ATCC 29213); assay: Antibacterial activity, MIC, S. aureus; assay type: cell-based; settings: Staphylococcus aureus, ATCC29213, Gram positive strain; broth microdilution or agar dilution
Experimental: (§1) Bacterial Assay: Determination of Antibacterial Activity
(§2) Compounds of the invention were tested for antimicrobial activity by susceptibility testing in liquid or on solid media. MICs for compounds against each strain were determined by the broth microdilution or agar dilution method according to the guidelines of the Clinical Laboratories and Standards Institute, formerly the National Committee for Clinical Laboratory Standards (Clinical Laboratories and Standards Institute. Methods for Dilution Antimicrobial Susceptibility Tests for Bacteria That Grow Aerobically; Approved Standard—Seventh Edition. Document M7-A7. CLSI, Wayne, Pa., 2006; Clinical Laboratories and Standards Institute. The gram positive bacterial strains tested include S. aureus (Staphylococcus aureus (Isolate ID ATCC 29213)), E. faecalis (Enterococcus faecalis (Isolate ID ATCC 29212)) and S. pyogenes (Streptococcus pyogenes (Isolate ID ATCC 51339)). The gram negative bacterial strains tested include H. influenzae (Haemophilus influenzae (Isolate ID ATCC 49247))

[2] = system: Haemophilus influenzae (Isolate ID ATCC 49247); assay: Antibacterial activity, MIC, H. influenzae; assay type: cell-based; settings: Haemophilus influenzae, ATCC49247; Gram negative strain; broth microdilution or agar dilution
Experimental: as §1, §2

physchem = settings: kinetic from dmso stock
Experimental: Turbimetric Assay: Determination of Solubility
The solubility of the compounds was measured using a turbidimetric method. A series of doubling dilutions of compounds were prepared in neat dimethyl sulfoxide (DMSO). 5 μl samples were diluted twenty-fold into 95 μl volumes of 100 mM citrate buffer (pH 4), phosphate buffered saline (PBS, pH 7.4) or carbonate-bicarbonate buffer (pH 9) in microtitre assay plates and allowed to reach equilibrium at room temperature for 24 hours. The absorbance within each well of the plate was read spectrophotometrically at a wavelength of 620 nm. A precipitate forms when the maximum aqueous solubility level is reached. The value quoted is the highest concentration where the compound was in solution i.e. where no measurable precipitate was present. […] ND=not determined

[3] = system: Streptococcus pyogenes (Isolate ID ATCC 51339); assay: Antibacterial activity, MIC, S. pyogenes; assay type: cell-based; settings: Streptococcus pyogenes, ATCC51339, Gram positive strain; broth microdilution or agar dilution
Experimental: as §1, §2

[4] = pH 7.4, aqueous buffer, Max Solubility
[5] = pH 7.4, aqueous buffer, Solubility (pH 7.4)
[6] = pH 7.4, aqueous buffer, Solubility Range
[7] = pH 7.4, aqueous buffer, Solubility Range (maximum solubility)
[8] = pH 9, aqueous buffer, Max Solubility
[9] = pH 9, aqueous buffer, Solubility Range (maximum solubility)

SMILES	MIC [1] [µg/mL]	MIC [2] [µg/mL]	solubility at 24 h (physchem; [4]) [µg/mL]	solubility at 24 h (physchem; [5]) [µg/mL]	solubility at 24 h (physchem; [6]) [µg/mL]	solubility at 24 h (physchem; [7]) [µg/mL]	MIC [3] [µg/mL]	solubility at 24 h (physchem; [8]) [µg/mL]	solubility at 24 h (physchem; [9]) [µg/mL]
CCNC(=O)Nc1nc2cc(-c3cnc(N4CCC(C)(C(=O)O)CC4)nc3)cc(/C(C)=N/OCCOC)c2s1 [Compound 188]	1 to 16 (≈ 1.8 to 28.8 µM)	> 16	≥ 800	≥ 800	> 800	> 800	1 to 16 (≈ 1.8 to 28.8 µM)	–	–
CCNC(=O)Nc1nc2cc(-c3cnc4c(c3)OC(C)(C(=O)O)C(=O)N4)cc(-c3ccccn3)c2s1 (stereo not shown) [Compound 190, 7-[2-(ethylcarbamoylamino)-7-(2-pyridyl)-1,3-benzothiazol-5-yl]-2-methyl-3-oxo-4H-pyrido[3,2-b][1,4]oxazine-2-carboxylic acid]	0.25 to 1 (≈ 0.496 to 1.98 µM)	> 16	400 (≈ 793 µM)	400 (≈ 793 µM)	400 to 800 (≈ 793 to 1590 µM)	400 to 800 (≈ 793 to 1590 µM)	0.25 to 1 (≈ 0.496 to 1.98 µM)	–	–
CCNC(=O)Nc1nc2cc(-c3cnc(N4CCC(C)(C(=O)OCC)CC4)nc3)c(OC)cc2s1 [Compound 191, Ethyl 1-[5-[2-(ethylcarbamoylamino)-6-methoxy-1,3-benzothiazol-5-yl]pyrimidin-2-yl]-4-methyl-piperidine-4-carboxylate]	1 to 16 (≈ 2.01 to 32.1 µM)	1 to 16 (≈ 2.01 to 32.1 µM)	6.25 (≈ 12.5 µM)	6.25 (≈ 12.5 µM)	< 12.5	< 12.5	1 to 16 (≈ 2.01 to 32.1 µM)	–	–
CCNC(=O)Nc1nc2cc(-c3cnc(C(=O)N4CCC(C)(C(=O)O)CC4)nc3)cc(-c3ccccn3)c2s1 [Compound 192]	1 to 16 (≈ 1.83 to 29.3 µM)	1 to 16 (≈ 1.83 to 29.3 µM)	≥ 800	≥ 800	> 800	> 800	1 to 16 (≈ 1.83 to 29.3 µM)	–	–
CCNC(=O)Nc1nc2cc(-c3cnc(N4CCC(CC)(C(=O)O)CC4)nc3)cc(C(N)=O)c2s1 [Compound 193, 1-[5-[7-carbamoyl-2-(ethylcarbamoylamino)-1,3-benzothiazol-5-yl]pyrimidin-2-yl]-4-ethyl-piperidine-4-carboxylic acid]	1 to 16 (≈ 2.01 to 32.2 µM)	1 to 16 (≈ 2.01 to 32.2 µM)	≥ 800	≥ 800	> 800	> 800	1 to 16 (≈ 2.01 to 32.2 µM)	–	–
CCNC(=O)Nc1nc2cc(-c3cnc(N4CCC(C)(C(=O)O)CC4)nc3)cc(COCCOC)c2s1 [Compound 194]	1 to 16 (≈ 1.89 to 30.3 µM)	1 to 16 (≈ 1.89 to 30.3 µM)	≥ 800	≥ 800	> 800	> 800	1 to 16 (≈ 1.89 to 30.3 µM)	–	–
CCNC(=O)Nc1nc2cc(-c3cnnc(N4CCC(C)(C(=O)O)CC4)c3)cc(-c3ccccn3)c2s1 [Compound 195, 1-[5-[2-(ethylcarbamoylamino)-7-(2-pyridyl)-1,3-benzothiazol-5-yl]pyridazin-3-yl]-4-methyl-piperidine-4-carboxylic acid]	1 to 16 (≈ 1.93 to 30.9 µM)	1 to 16 (≈ 1.93 to 30.9 µM)	≥ 800	≥ 800	> 800	> 800	≤ 0.25	–	–
CCNC(=O)Nc1nc2cc(-c3cnc(NC4COC(C)(C(=O)O)OC4)nc3)cc(-c3ccccn3)c2s1 (stereo not shown) [Compound 196]	1 to 16 (≈ 1.87 to 29.9 µM)	1 to 16 (≈ 1.87 to 29.9 µM)	–	50 (≈ 93.4 µM)	12.5 to 400 (≈ 23.3 to 747 µM)	–	1 to 16 (≈ 1.87 to 29.9 µM)	100 (≈ 187 µM)	12.5 to 400 (≈ 23.3 to 747 µM)
CCNC(=O)Nc1nc2cc(-c3cnc(N4CCC(CC)(C(=O)O)CC4)nc3)cc(C3=NOCC3)c2s1 [Compound 197, 1-[5-[7-(4,5-dihydroisoxazol-3-yl)-2-(ethylcarbamoylamino)-1,3-benzothiazol-5-yl]pyrimidin-2-yl]-4-ethyl-piperidine-4-carboxylic acid]	1 to 16 (≈ 1.91 to 30.6 µM)	1 to 16 (≈ 1.91 to 30.6 µM)	≥ 800	≥ 800	> 800	> 800	0.25 to 1 (≈ 0.477 to 1.91 µM)	–	–
CCNC(=O)Nc1nc2cc(-c3cnc(N4CCC(C)(C(=O)O)CC4)nc3)c(OC)cc2s1 [Compound 198, 1-[5-[2-(Ethylcarbamoylamino)-6-methoxy-1,3-benzothiazol-5-yl]pyrimidin-2-yl]-4-methyl-piperidine-4-carboxylic acid]	1 to 16 (≈ 2.13 to 34 µM)	1 to 16 (≈ 2.13 to 34 µM)	≥ 800	≥ 800	> 800	> 800	1 to 16 (≈ 2.13 to 34 µM)	–	–
CCNC(=O)Nc1nc2cc(-c3cnc(N4CCC(CC)(C(=O)O)CC4)nc3)cc(C=O)c2s1 [Compound 199, 4-ethyl-1-[5-[2-(ethylcarbamoylamino)-7-formyl-1,3-benzothiazol-5-yl]pyrimidin-2-yl]piperidine-4-carboxylic acid]	1 to 16 (≈ 2.07 to 33.2 µM)	1 to 16 (≈ 2.07 to 33.2 µM)	≥ 800	≥ 800	> 800	> 800	0.25 to 1 (≈ 0.518 to 2.07 µM)	–	–
CCNC(=O)Nc1nc2cc(-c3cnc(N4CCC(C)(C(=O)O)CC4)nc3)cc(OC)c2s1 [Compound 200, 1-[5-[2-(Ethylcarbamoylamino)-7-methoxy-1,3-benzothiazol-5-yl]pyrimidin-2-yl]-4-methyl-piperidine-4-carboxylic acid]	1 to 16 (≈ 2.13 to 34 µM)	1 to 16 (≈ 2.13 to 34 µM)	≥ 800	≥ 800	> 800	> 800	1 to 16 (≈ 2.13 to 34 µM)	–	–
CCNC(=O)Nc1nc2cc(-c3cnc(N4CCC(C)(C(=O)O)C4)nc3)cc(-c3ccccn3)c2s1 (stereo not shown) [Compound 201]	1 to 16 (≈ 1.99 to 31.8 µM)	1 to 16 (≈ 1.99 to 31.8 µM)	≥ 800	≥ 800	> 800	> 800	0.25 to 1 (≈ 0.496 to 1.99 µM)	–	–
CCNC(=O)Nc1nc2cc(-c3cnc(N4CCC(C)(C(=O)O)CC4)nc3)cc(COC)c2s1 [Compound 202, 1-[5-[2-(Ethylcarbamoylamino)-7-(methoxymethyl)-1,3-benzothiazol-5-yl]pyrimidin-2-yl]-4-methyl-piperidine-4-carboxylic acid]	1 to 16 (≈ 2.06 to 33 µM)	0.25 to 1 (≈ 0.516 to 2.06 µM)	≥ 800	≥ 800	> 800	> 800	1 to 16 (≈ 2.06 to 33 µM)	–	–
CCNC(=O)Nc1nc2cc(-c3cnc(N4CCC(CC)(C(=O)O)CC4)nc3)cc(COC)c2s1 [Compound 203, 4-Ethyl-1-[5-[2-(ethylcarbamoylamino)-7-(methoxymethyl)-1,3-benzothiazol-5-yl]pyrimidin-2-yl]piperidine-4-carboxylic acid]	1 to 16 (≈ 2.01 to 32.1 µM)	1 to 16 (≈ 2.01 to 32.1 µM)	–	100 (≈ 201 µM)	12.5 to 400 (≈ 25.1 to 802 µM)	–	1 to 16 (≈ 2.01 to 32.1 µM)	≥ 800	> 800
CCNC(=O)Nc1nc2cc(-c3cnc(N4CCC(C)(C(=O)O)CC4)nc3)cc(/C=N/OCC)c2s1 [Compound 204]	0.25 to 1 (≈ 0.489 to 1.95 µM)	1 to 16 (≈ 1.95 to 31.3 µM)	≥ 800	≥ 800	> 800	> 800	0.25 to 1 (≈ 0.489 to 1.95 µM)	–	–

Source: patent US9181234B2, “Antibacterial compounds” (priority 2010, dated 2015)
